Test system: mouse hepatocyte cell lines (AML12)
Test: TGF-β-induced fibrosis, co-administration of dehydrozingerone derivative and EW-7197 (epithelial-mesenchymal conversion, BODIPY, α-SMA staining)
Assay type: cell-based
Settings: 2 ng/ml TGF-β, 24 hours, 10 μM EW-7197, 1 μM Cur or Cur5-8, 10 μM DHZ, DHZ103 or DHZ176
Protocol: In addition, the curcumin derivative Cur5-8 of Example 1-4 and the TGF-β receptor inhibitor were co-administered, and then fibrosis and fat synthesis and degradation were checked again. […] The control group (Con) was not treated with either TGF-β or the sample. […] After washing with PBS 1×, stained cells were observed. In addition, in order to check the degree of fibrosis of hepatocytes, the cells cultured for 24 hours were fixed with 4% paraformaldehyde and stained by using α-SMA (Santa Cruz Biotechnology, Inc., Dallas, Texas, USA), an Alexafluor 488 (Cell Signaling Technology, Danvers, Massachusetts, USA) antibody, and DAPI (Abcam plc., Cambridge, MA, USA). The cells were mounted with a mounting solution (Fisher Scientific, Hampton, Rockingham, USA), the manufactured sample was photographed using a confocal microscope to obtain photographs of stained cells, and the degree of color development in the photographs of the stained cells was analyzed with the ImageJ program.

Cc1cccc(-c2[nH]c(CNc3ccccc3F)nc2-c2ccc3ncnn3c2)n1 [EW-7197, N-(2-fluorophenyl)-5-(6-methyl-2-pyridinyl)-4-[1,2,4]triazolo[1,5-a]pyridin-6-yl-1H-imidazole-2-methanamine]
epithelial-mesenchymal conversion caused by TGF-β (FIG. 16): inhibited
fat accumulation / adipogenesis in cells (BODIPY staining) (FIGS. 16, 17): fat accumulation in cells was exhibited
liver fibrosis (α-SMA staining) (FIGS. 16, 18): inhibited

Source: patent US20230364069A1, “METHOD FOR TREATING NON-ALCOHOLIC STEATOHEPATITIS THROUGH CO-ADMINISTRATION OF CURCUMIN DERIVATIVE AND TGF-B RECEPTOR INHIBITOR” (UNIVERSITY INDUSTRY FOUNDATION, YONSEI UNIVERSITY WONJU …, priority 2021, published 2023)
